Experimental findings from patent US5356886A, “Antiviral phosphono-alken derivatives of purines” (Beecham Group p.l.c., priority 1990, dated 1994) are described below.

In brackets after ≈: the same amount, converted by molar mass.

The term inhibition denotes the change of the read-out against control, counted positive when it falls.

One data set deals with Visna Virus. Briefly: CPE Inhibition Test (Established Monolayer) for Lentiviruses, visna virus (strain K184) in sheep choroid plexus cells. The data set is classed as cell-based. The settings on record: Visna-maedi virus; visna virus strain K184, SCP cells; read-out: MIC (minimum concentration giving complete protection of the cell monolayers). The procedure: 3×10^4 sheep choroid plexus (SCP) cells were plated into individual wells of a 96 well microtitre plate in 100 μl of Eagle's MEM with Hanks' salts containing 10% heat inactivated foetal calf serum (FCS). When monolayers had become established (after 1 or 2 days growth) they were washed with 200 μl of maintenance medium (Eagle's MEM with Hanks' salts containing 0.5% FCS) and infected with 100 μl of visna virus (strain K184) in maintenance medium (30 TCID50/ml). Test samples were diluted with maintenance medium in further 96 well microtitre plates over the range 200-0.06 μg/ml by 3-fold dilution steps. 100 μl of the diluted samples was then transferred directly onto virus-infected monolayers (final concentration range therefore 100-0.03 μg/ml) and […] containing 5% CO2 until virus-induced CPE was maximal in the untreated virus-infected controls (usually 12-14 days). The plates were fixed with formal saline and stained with crystal violet. Virus-induced CPE was then scored microscopically and the minimum concentration of sample giving complete protection of the cell monolayers (MIC) determined.
For the molecule `Nc1ncnc2c1ncn2OCC/C=C/P(=O)(O)O` [Example 3, (E)-9-(4-phosphonobut-3-enyloxy)adenine], the MIC was 10 µg/mL (≈ 35.1 µM).

Turning to `Nc1ncnc2c1ncn2CC/C=C/P(=O)(O)O` [Example 5, (E)-9-[4-Phosphonobut-3-enyl]adenine], the MIC turned out to be 1 µg/mL (≈ 3.71 µM).

Take `Nc1nc(N)c2ncn(CC/C=C/P(=O)(O)O)c2n1` [Example 8, (E)-2,6-Diamino-9-(4-phosphonobut-3-enyl)purine]: the MIC was 0.3 µg/mL (≈ 1.06 µM).

`Nc1ncnc2c1ncn2OCC/C=C\P(=O)(O)O` [Example 10, (Z)-9-(4-Phosphonobut-3-enyloxy) adenine]: the MIC was 100 µg/mL (≈ 351 µM).

In the next data set the test system is FIV. The data set can be described thus: Test for Feline Immunodeficiency Virus (FIV Glasgow 8) in Crandell Feline Kidney cells. It is filed as cell-based. The settings on record: FIV Glasgow 8, Crandell Feline Kidney cells, 11-14 days, read-out: MIC (minimum concentration of drug inhibiting syncitial production). The procedure:
(§1) Drug stocks were diluted to the appropriate concentration, in medium (e.g. 10 mg/ml to 200 μg/ml). 150 μl of each drug was dispersed in triplicate, across the top row of a microtitre plate (150 μl of media for virus and cell control, vc and cc). 100 μl of medium was dispersed into all other wells. The wells were serially diluted moving down the plate, removing 50 μl from each well and transferring to the next row. 50 μl was discarded from the bottom wells.
(§2) Trypsinisation was carried out from a confluent cell monolayer of Crandell Feline Kidney cells, in 10% trypsin, followed by resuspension in media at 1×10^6 per ml, ensuring that a single cell suspension is achieved. (Media: 90% 1×RPMI, 25 mM hepes buffer; 10% Foetal calf serum; 2% Glutamine; 2% penecillin/streptomycin.)
(§3) FIV Glasgow 8 virus was diluted to 4× the required virus challenge in medium (40 TCID50 /ml). The virus infected medium was mixed with an equal volume of cell suspension, 100 μl of which was aliquoted into each well of the drug plate, except cell control. 100 μl of cell suspension at 5×10^4 per ml was added to the latter. This gives a final cell concentration of 2.5×10^4 per ml, and drug range 100-0.03 μg/ml. The plates were incubated at 37° C., 5% CO2 in an air humidified incabator for 11-14 days. The cells were fixed by immersing the plates in formoli saline (10% formaldehyde; 10% 1.5M NaCl; 80% water) for 1 hour minimum. The cells were stained with 10% crystal violet for 15 minutes.
(§4) The assay was scored by looking for presence of syncitia and, virus induced cytopathic effect in the cell monolayers, under a microscope. Results are given as the minimum concentration of drug inhibiting syncitial production, minimum inhibitory concentration, MIC.
Regarding `Nc1ncnc2c1ncn2OCC/C=C/P(=O)(O)O` [Example 3, (E)-9-(4-phosphonobut-3-enyloxy)adenine], the MIC came to 10 µg/mL (≈ 35.1 µM).

Turning to `Nc1ncnc2c1ncn2OCC(/C=C/P(=O)(O)O)CO` (stereo not drawn) [Example 15, (E)-9-(2-hydroxymethyl-4-phosphonobut-3-enyloxy) adenine], the MIC worked out at 30 µg/mL (≈ 95.2 µM).

The subject of a further data set is HIV. The data set can be described thus: HIV Suppression test, viral RNA (nucleic acid hybridisation) in peripheral human lymphocytes. The settings on record: Human immunodeficiency virus 1, Lymphocyte, 96 h; Concn. 10 μM; read-out: % Inhibition on Day 4 after infection, Viral RNA. The data set is classed as cell-based. The procedure:
(§5) Peripheral human lymphocytes were prepared, cultivated, and harvested as above. Following the determination of the lymphocyte surface markers, unstimulated and mitogen stimulated cells were combined in a ratio of 1:2.
(§6) Under safety conditions these cells are infected with a standard preparation of HIV. The cells are sedimented by centrifugation. The supernatant was discarded and cells were resuspended in the HIV inoculum.
(§7) This inoculum is a liquid suspension of HIV-1 strain virus, pretested and adjusted to a titer that results in a synthesis of viral core protein p24 of >100 ng/ml at day four following infection of human lymphocytes according to the protocol.
(§8) 3×10^8 lymphocytes were resuspended in 1 ml HIV inoculum and incubated at 37° C. for 60 minutes. Subsequently, the cells were washed two times with 50 ml of culture medium and resuspended in culture medium containing 10 units/ml of human recombinant interleukin-2 to yield a cell concentration of 2×10^6 cells/ml. 100 μof this cell suspension was added to each well of the microtiter plates containing the diluted solutions of the compounds. The microtiter plates were cultivated in an incubator with a humidified atmosphere and 5% CO2 at 37° C.
(§9) Accordingly, a fraction of lymphocytes was mock-infected with the same virus preparation that was heat inactivated (30 minutes at 56° C.) prior to infection.
(§10) On each of the days 2,3 and 4 post infection one of the microtiter plates which had been established in triplicate was prepared for determination of viral replication. Viral RNA is determined within the cells whereas the viral core protein p24 was detected in the supernatant of the lymphocyte culture.
(§11) Accordingly, 150 μl of supernatant were removed from each well and transferred to the well of a microtiter plate containing 50 μl/well of SDS (sodium dodecylsulfate, 0.08%). These plates were stored frozen. 50 μl of stop solution (1% SDS, 20 mM sodium acetate, pH 5.0, and 200 μg/ml heparin) were added to the cells remaining in each well. The plates were stored frozen.
(§12) The concentration of p24 synthesized by the HIV infected cells was determined by means of a sandwich ELISA, while the concentration of viral RNA was quantitated by nucleic acid hybridisation, using a ^32 P-labelled DNA probe for the gag/pol region of the viral genome. Absolute levels of viral antigen and RNA in drug treated samples were compared with untreated, virus-infected controls and the percentage inhibition calculated.
Regarding `Nc1ncnc2c1ncn2OCC/C=C/P(=O)(O)O` [Example 3, (E)-9-(4-phosphonobut-3-enyloxy)adenine], the inhibition at 10 µM worked out at 44%.

For the molecule `Nc1nc(N)c2ncn(CC/C=C/P(=O)(O)O)c2n1` [Example 8, (E)-2,6-Diamino-9-(4-phosphonobut-3-enyl)purine], the inhibition at 10 µM worked out at 62%.

The subject of a further data set is HIV. The data set can be described thus: HIV Suppression test, viral antigen (core protein p24, sandwich ELISA) in peripheral human lymphocytes. The data set is classed as cell-based. The following applies: Human immunodeficiency virus 1, Lymphocyte, 96 h; Concn. 10 μM; read-out: % Inhibition on Day 4 after infection, Viral Antigen. The procedure:
as §5, §6, §7, §8, §9, §10, §11, §12
Take `Nc1ncnc2c1ncn2OCC/C=C/P(=O)(O)O` [Example 3, (E)-9-(4-phosphonobut-3-enyloxy)adenine]: the inhibition at 10 µM came out at 47%.

Turning to `Nc1nc(N)c2ncn(CC/C=C/P(=O)(O)O)c2n1` [Example 8, (E)-2,6-Diamino-9-(4-phosphonobut-3-enyl)purine], the inhibition at 10 µM was found to be 37%.

Tested on in the next data set: not listed separately
The data set can be described thus: Cytotoxicity for the cell monolayers in the FIV test. The settings on record: cat, crandell feline kidney cells, no cytotoxicity noted with concentrations up to this value, read-out: cytotoxicity for the cell monolayers. The data set is classed as cell-based. The procedure:
as §1, §2, §3, §4
Turning to `Nc1ncnc2c1ncn2OCC/C=C/P(=O)(O)O` [Example 3, (E)-9-(4-phosphonobut-3-enyloxy)adenine], the MCC is more than 100 µg/mL.

In the case of `Nc1ncnc2c1ncn2OCC(/C=C/P(=O)(O)O)CO` (stereo not drawn) [Example 15, (E)-9-(2-hydroxymethyl-4-phosphonobut-3-enyloxy) adenine], the MCC was more than 100 µg/mL.
